Converted amounts (≈) assume the structure as drawn. Where two headings read alike, the source gives them in different places. Numbered stars: 1 amine (or outer) side, 2 acyl side, 3 side chain; on linkers, the order of the positions; unused ones are H or OH. Side chains are listed from the residue outwards. Peptide text beside a SMILES is read from it. * marks the point of attachment. γGlu = O=C(O)[C@H](CCC(=O)[*:2])N[*:1]; Palmitoyl = CCCCCCCCCCCCCCCC(=O)*
Experiments:
[1] = type: in vitro ADME, human
Experimental: (§1) Stability testing of peptides in plasma.
(§2) Stock solutions of the peptides of about 200 μmol/L was prepared by weighing solid peptide into a Eppendorf Low Bind Tube and dissolved in DMSO. 10 μL of stock solutions were added to 990 μL of plasma in an Eppendorf Low Bind Tube, resulting in initial concentrations of the peptides in plasma of about 2 μmol/L. The frozen blank plasma from human, rat and mouse had been thawed and heated to a temperature of 37° C. before addition of the stock solution. The spiked plasma samples were gently mixed and allowed to equilibrate for about 5 minutes before start of experiment. The plasma samples were incubated for 48 hours in a GalaxyR CO2 incubator at 37° C. Sampling (30 μL) was performed at 0, 1, 2, 6.5, 17, 24 and 48 hours. The samples were stored at −70° C. until analysis.
(§3) Plasma samples were assayed as follows. The 30 μL plasma samples were protein precipitated with […] of cold ethanol in a 96-well low bind plate (Eppendorf Protein LoBind). After mixing and centrifugation, 100 μl the supernatant was transferred to a new plate and 1 μl was injected onto an analytical column.
(§4) The analysis was performed using a μLC-system (LC Exigent μLC) coupled to a medium high resolution mass spectrometer (Perkin Elmer PenTOF) with positive electrospray ionisation. The analytical column was a 5 cm, 1 mm Agilent Poroshell (custom made) C18-column with a particle size of 2.7 μm. Flow: 0.1 ml/min using a slow reversed phase gradient. Mobile phases used were acetonitrile and water containing 0.1% formic acid.
(§5) The resulting data were manually evaluated for the following degradation products: +1 product (acid) and the DPP IV-cleavage product. Products with +1 mass may arise from deamidation at amide groups of glutamine or at the C-terminus. Cleavage products arise from the action of the protease DPP IV in plasma. Both the degradation of the peptides and formation of peptide products were reported in percentage of the initial peptide concentration. Peaks were integrated and % remaining peptide was calculated: (peak area/peak area 0H)*100. Levels of deamidation and DPP IV cleavage were low for G797 and G933.

[2] = Stability testing of peptides in plasma; type: in vitro ADME, mouse
Experimental: as §1, §2, §3, §4
as §5, with “Levels of deamidation and DPP IV cleavage were low for G797 and G933.” left out

Rat GlucR = target: T1, Rat GlucR (Rattus norvegicus, UniProt P30082); test: cAMP assay in presence of serum albumin (assay 2), 3.2% rat serum albumin; type: cell-based; conditions: relative potencies vs native ligands
T1 construct: expressed in transfected cells
Experimental: CHO cells with stable recombinant expression of the human, mouse or rat GlucR or GLP-t receptor were cultured in DMEM 10% FBS and geneticin (100 μg/mil). Cryopreserved cell stocks were prepared in 1× cell freezing medium-DMSO serum free (Sigma Aldrich) at 2×10^7/vial and stored at […]. […] Peptides were serially diluted in DMSO and then diluted 100 fold into DMEM containing serum albumin at stated final concentration. […] Cells were added to the assay plates and incubated for 30 min at room temperature. Following incubation the assay was stopped and cAMP levels measured using the HTRF® dynamic d2 cAMP assay kit available from CisBio Bioassays, as per the manufacturer's guidelines. Plates were read on Perkin Elmer ENVISION® fluorescence plate readers. Human and rat serum albumin were purchased from Sigma Aldrich and mouse serum albumin from Equitech Bio Ltd.

[3] = type: in vitro ADME, rat
Experimental: as §1, §2
as §3, with “column. […]” for “column.”
The resulting data were manually evaluated for the following degradation products: +1 product (acid) and the DPP IV-cleavage product. […] Peaks were integrated and % remaining peptide was calculated: (peak area/peak area 0H)*100. […]

[4] = test system: diet induced obesity (DIO) mouse model; test: Diet induced obesity (DIO) mouse model, study A; type: in vivo; conditions: for BeHy / Insulin / Plasma NEFA: day 14
Excerpt: Female C57/Bl6JHsdOla (obtained from Harlan Laboratories. UK) were started on a high fat diet of D12492 (Research Diets, NJ, USA) and a chocolate confection, delicato ball (Delicata Bakverk, Sweden) at 9-11 weeks of age, and were maintained on the diet for 16 weeks prior to arrival to the animal facility, during a three week acclimation period and during drug treatment, caloric content of the two components of the diet is shown in Table 11. The mice were divided into 9 groups (n=5-6), and treatment was started at 29 weeks of age.
The body weight of the animals was monitored daily throughout die dosing period. At day 14, blood samples for the measurement of plasma glucose and insulin from conscious mice were obtained after a 4-hour fasting period. Mice were then anaesthetized using isofluorane and terminal blood was collected from the capillary bed behind the eye. The following parameters were measured: blood chemistry measurements of triglycerides, total cholesterol, non-esterified fatty acids (NEFA), beta-hydroxybutyrate and fibroblast growth factor 21 (FGF21) (Tables 14 and 15 below).

human serum albumin = human serum albumin (Homo sapiens, UniProt P02768); test: Fraction of free peptide calculated from variation in cAMP generation with HSA concentration; conditions: calculated from cAMP generation vs HSA concentration
Excerpt: Data was transformed to % Delta F as described in manufacturer's guidelines and analysed by 4-parameter logistic fit to determine EC50 values. […] To compare the balance of activities at the GLP1R and GlucR between different peptides and across different conditions, these can be correlated using the calculation below, where the EC50's are related to those of the natural ligands.

[5] = Peptide solubility in isotonic formulations (DF, BF1, BF2); conditions: formulation DF (DF/BF1 for G797)
Experimental: Formulations. Peptide solubility was assessed in three different isotonic formulations: • 1. […] Final formulation pH=7.2 • 2. Back up formulation 1 (BF1)=0.05M Tris, 50 nM Arginine/Proline. Final formulation pH=8.0 • 3. […] Final formulation pH=7.0

[6] = Peptide solubility in buffers (A280); type: physicochemical; conditions: target 1 mg/ml, read-out: Conc. (A280), solubility
Excerpt: G7310 was soluble in a pH range of 4.5 to 8.0.

human serum albumin, sequence (P02768 25-609): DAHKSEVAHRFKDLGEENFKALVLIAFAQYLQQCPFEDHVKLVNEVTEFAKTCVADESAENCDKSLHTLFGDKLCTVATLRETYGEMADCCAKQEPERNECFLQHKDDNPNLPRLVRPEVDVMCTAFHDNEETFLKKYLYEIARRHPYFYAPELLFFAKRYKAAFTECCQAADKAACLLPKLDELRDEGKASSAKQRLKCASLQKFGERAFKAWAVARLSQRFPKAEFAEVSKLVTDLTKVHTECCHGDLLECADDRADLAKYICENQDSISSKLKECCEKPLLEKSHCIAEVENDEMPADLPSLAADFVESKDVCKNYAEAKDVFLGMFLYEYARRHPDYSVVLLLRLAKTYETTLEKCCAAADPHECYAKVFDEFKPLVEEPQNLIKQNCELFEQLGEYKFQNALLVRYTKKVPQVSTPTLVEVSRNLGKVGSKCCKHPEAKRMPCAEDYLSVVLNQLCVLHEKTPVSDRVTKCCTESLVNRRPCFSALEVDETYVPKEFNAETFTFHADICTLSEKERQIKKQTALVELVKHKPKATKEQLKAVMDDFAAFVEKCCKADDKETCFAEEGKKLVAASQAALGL
T1 sequence (P30082 27-485): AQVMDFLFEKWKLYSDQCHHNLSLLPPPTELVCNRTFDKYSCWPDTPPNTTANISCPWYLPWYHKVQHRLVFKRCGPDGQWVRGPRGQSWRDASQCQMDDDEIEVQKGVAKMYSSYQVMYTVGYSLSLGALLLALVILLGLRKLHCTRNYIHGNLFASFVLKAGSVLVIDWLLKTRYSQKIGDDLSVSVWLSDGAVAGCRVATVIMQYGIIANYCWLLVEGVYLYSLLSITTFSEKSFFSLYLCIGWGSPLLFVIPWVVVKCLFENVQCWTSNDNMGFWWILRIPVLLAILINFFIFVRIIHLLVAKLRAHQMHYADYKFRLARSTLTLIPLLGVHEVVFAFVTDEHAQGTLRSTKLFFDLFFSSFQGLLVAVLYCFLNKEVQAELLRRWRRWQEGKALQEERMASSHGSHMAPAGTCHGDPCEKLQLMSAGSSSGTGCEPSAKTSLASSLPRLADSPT

CCCCCCCCCCCCCCCC(=O)N[C@@H](CCC(=O)NCCCC[C@H](NC(=O)[C@H](CCCCN)NC(=O)[C@H](CO)NC(=O)[C@H](Cc1ccc(O)cc1)NC(=O)[C@H](CC(=O)O)NC(=O)[C@H](CO)NC(=O)[C@@H](NC(=O)[C@H](Cc1ccccc1)NC(=O)[C@@H](NC(=O)CNC(=O)[C@H](CCC(N)=O)NC(=O)[C@H](CO)NC(=O)[C@@H](N)Cc1c[nH]cn1)[C@@H](C)O)[C@@H](C)O)C(=O)N[C@@H](CC(C)C)C(=O)N[C@@H](CC(=O)O)C(=O)N[C@@H](CO)C(=O)N[C@@H](CCC(=O)O)C(=O)N[C@@H](CCCNC(=N)N)C(=O)N[C@@H](C)C(=O)N[C@@H](CCCNC(=N)N)C(=O)N[C@@H](CC(=O)O)C(=O)N[C@@H](Cc1ccccc1)C(=O)N[C@H](C(=O)N[C@@H](C)C(=O)N[C@@H](Cc1c[nH]c2ccccc12)C(=O)N[C@@H](CC(C)C)C(=O)N[C@H](C(=O)N[C@@H](C)C(=O)NCC(=O)NCC(N)=O)C(C)C)C(C)C)C(=O)O [Peptide G730] (H-HSQGTFTSDYSKK([γGlu-Palmitoyl])LDSERARDFVAWLVAGG-NH2; N-terminus assumed)
% +1 prod [1]: <1% | % DPP cleaved product/+1 DPP cleaved product [1]: <1% | % +1 prod [2]: 15% | % stable peptide ([2]; mouse plasma, 37° C., 24 h): 65% | Rat GlucR/GLP1R Ratio (Rat GlucR): 0.05 | % DPP cleaved product/+1 DPP cleaved product [3]: 2% | BeHy ([4]; 10 nmol/kg): 426 u mol/l | Insulin ([4]; 10 nmol/kg): 0.4 nM | Plasma NEFA ([4]; 10 nmol/kg): 0.28 Mm | BeHy ([4]; 20 nmol/kg): 750 u mol/l | Insulin ([4]; 20 nmol/kg): 0.2 nM | Plasma NEFA ([4]; 20 nmol/kg): 0.26 Mm | BeHy ([4]; 50 nmol/kg): 1477 u mol/l | Insulin ([4]; 50 nmol/kg): 0.3 nM | Plasma NEFA ([4]; 50 nmol/kg): 0.32 Mm | body weight over the 14 day dosing period ([4]; study A, in words): dose dependent and continuous weight loss | glucose levels at day 14 ([4]; study A, in words): dose-dependent reduction in glucose levels | free peptide at 4.4% HSA (human serum albumin): 0.85% | Formulation Concentration [5]: 5 mg/mL | solubility ([6]; Tris buffer, Tris pH 7.5, 100 mM): 830 µg/mL (≈ 225 µM) | solubility ([6]; Tris buffer, Tris pH 8.0, 100 mM): 1100 µg/mL (≈ 298 µM) | solubility ([6]; glutamate buffer, Glutamate pH 4.5, 100 mM): 830 µg/mL (≈ 225 µM) | solubility ([6]; phosphate buffer, Phosphate pH 6, 100 mM): 140 µg/mL (≈ 37.9 µM) | solubility ([6]; phosphate buffer, Phosphate pH 6.5, 100 mM): 830 µg/mL (≈ 225 µM) | solubility ([6]; phosphate buffer, Phosphate pH 7.5, 100 mM): 850 µg/mL (≈ 230 µM)

— US20220041681A1 (MEDIMMUNE LIMITED, priority 2016, published 2022)
